How the values were obtained:
[1] = In vitro stability in human plasma; assay type: in vitro ADME; conditions: conversion to rivaroxaban seen from zero min
Procedure: The final concentration of the test compound in the assay is 5 micromolar. […] C. The 100 microliters of aliquot at time point was removed and diluted with ice cold acetonitrile containing IS (200.mu·L) to stop the reactions. Samples are centrifuged at 10,000 RPM for 5 minutes to precipitate proteins. Supernatants are transferred to micro centrifuge tubes and stored at −20° C. for analysis of LC/MS/MS. The percent parent remaining of the test substance is calculated as ratio of peak area at each time point to peak area ratio at zero min, multiplied by 100.
API 4000, ESI Agilent 1100 column: Gemini Nx 100 mm×4.6 mm 5.1; column temperature: 30° C.; eluent A: 0.1% formic acid in water, eluent B: acetonitrile; gradient: 0-2.5 min 95% A, 5% B; 2.5-2.6 min 5% A, 95% B; 2.6-4.2 min 95% A, 5% B; flow rate: 0.8 ml/min; ESI. Q1:464.098, Q3:144.255

[2] = In vitro liver microsomal stability assay (rat); assay type: in vitro ADME; conditions: rat liver microsomes
Procedure: (§1) Liver microsomal stability assays are conducted at 1 mg per mL liver microsome protein with an NADPH in phosphate buffer (100 mM, pH 7.4). Test compounds (compound of formula B of the invention) are prepared as solutions in 20% methanol-water and added to the assay mixture (final assay concentration 1 μM) and incubated at 37° C. Aliquots (100.μ·L) are taken out at times 0, 15, and 30 minutes, and diluted with ice cold acetonitrile containing IS (200.mu·L) to stop the reactions. Samples are centrifuged at 10,000 RPM for 5 minutes to precipitate proteins. Supernatants are transferred to micro centrifuge tubes and stored at −20° C. for analysis of LC/MS/MS. The percent parent remaining of the test substance is calculated as Ratio of peak area at each time point to peak area ratio at zero min, multiplied by 100. The compound formula (B) is converted to Rivaroxaban in microsomal assay.

[3] = tested on: plasma protein; assay: Plasma protein binding (human); assay type: in vitro ADME
Procedure: A compound solution (1 mM in DMSO) (5 μL), according to the invention is added to the respective plasma matrices of rat or human or mouse (1 ml).
Add 150 ul of phosphate buffer to receiving side of the dialysis well. […] Precipitate with Acetonitrile and dilute samples prior to analysis in 1.5 ml polypropylene tubes. Remove 50 μl from the sample side of dialysis well and add 50 μl of phosphate buffer +300 μl of acetonitrile containing IS. Remove 50 μl from the buffer side of the dialysis well and add 50 μl of respective matrix plasma +300 μl of ACN. Then vortexed and centrifuged for 5 min, and supernatant is taken and injected into LCMS.
Different test concentration ranging from 0.1 μM to 20 μM are made in methanol:water (90:10). Test solutions are added to the premixed matrix containing plasma:phosphate buffer (50:50). Precipitate with 300 μl of ice cold acetonitrile containing IS, vortexes and centrifuged. Supernatant is taken and injected into LCMS. Percentage of plasma protein binding was obtained via Equation(2):% Fraction unbound=(concentration on the buffer side/concentration on the sample side)*100 Table-7

[4] = target: CYP2C9 (Homo sapiens (Human), UniProt P11712); assay: CYP inhibition assay; assay type: in vitro ADME; conditions: pooled human liver microsomes; extrapolated IC50 derived from 3 μM; read-out: IC50 (μM) of CYP isoforms, 2C9
CYP2C9, sequence (P11712 whole entry, canonical isoform): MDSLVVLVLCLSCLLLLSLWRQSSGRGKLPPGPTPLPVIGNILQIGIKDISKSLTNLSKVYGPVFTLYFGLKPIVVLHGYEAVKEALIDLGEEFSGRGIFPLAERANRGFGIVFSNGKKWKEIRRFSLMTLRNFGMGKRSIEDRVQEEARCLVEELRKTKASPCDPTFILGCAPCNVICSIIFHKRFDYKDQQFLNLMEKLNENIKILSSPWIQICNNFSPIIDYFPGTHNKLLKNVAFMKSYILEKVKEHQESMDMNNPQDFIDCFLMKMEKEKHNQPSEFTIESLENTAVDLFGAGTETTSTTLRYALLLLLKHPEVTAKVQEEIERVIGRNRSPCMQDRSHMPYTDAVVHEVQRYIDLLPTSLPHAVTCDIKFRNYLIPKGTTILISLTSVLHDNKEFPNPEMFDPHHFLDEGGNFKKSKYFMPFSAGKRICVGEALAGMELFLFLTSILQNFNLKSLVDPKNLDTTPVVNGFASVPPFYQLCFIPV
Procedure: (§2) The ability of substances to inhibit CYP1A2, CYP2C9, CYP2D6, CYP2C19, CYP2J2 and CYP3A4 in humans was investigated with pooled human liver microsomes as enzyme source in the presence of standard substrates (see below) which form CYP-isoform-specific metabolites.
(§3) Standard incubation mixtures comprise NADPH and substrates in 100 mM phosphate buffer (pH 7.4) in a total volume of 200 μl. Test compound are dissolved in acetonitrile. Incubated with pooled human liver microsomes at 37° C. for a defined time. The reactions are stopped by adding 100 μl of acetonitrile in which a suitable internal standard is always present. Precipitated proteins are removed by centrifugation, and the supernatants analyzed by LC-MS/MS. The data represents the extrapolated IC50 (μM) concentration derived from 3 μM.

[5] = target: CYP2J2 (Homo sapiens (Human), UniProt P51589); assay: CYP inhibition assay; assay type: in vitro ADME; conditions: pooled human liver microsomes; extrapolated IC50 derived from 3 μM; read-out: IC50 (μM) of CYP isoforms, 2J2
CYP2J2, sequence (P51589 whole entry, canonical isoform): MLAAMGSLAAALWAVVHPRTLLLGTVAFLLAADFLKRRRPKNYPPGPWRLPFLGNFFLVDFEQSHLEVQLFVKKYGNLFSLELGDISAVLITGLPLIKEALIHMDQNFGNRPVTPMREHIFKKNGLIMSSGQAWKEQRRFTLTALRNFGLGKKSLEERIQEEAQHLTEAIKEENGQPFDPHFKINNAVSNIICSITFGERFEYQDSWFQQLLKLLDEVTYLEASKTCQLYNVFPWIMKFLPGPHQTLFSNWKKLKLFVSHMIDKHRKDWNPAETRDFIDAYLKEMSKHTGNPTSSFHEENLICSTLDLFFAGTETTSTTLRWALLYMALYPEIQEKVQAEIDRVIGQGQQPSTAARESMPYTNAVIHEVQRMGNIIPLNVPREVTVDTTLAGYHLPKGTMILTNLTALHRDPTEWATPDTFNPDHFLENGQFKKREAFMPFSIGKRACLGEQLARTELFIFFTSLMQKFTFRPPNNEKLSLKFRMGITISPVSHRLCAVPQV
Procedure: as §2, §3

[6] = Stability in simulating intestinal fluid (SIF); assay type: physicochemical; conditions: over 120 min
Procedure: On completion of incubation period, the solution is centrifuged and supernatant is taken. To the supernatant, ice cold acetonitrile containing IS is added, vortexed and injected into LCMS/MS.
API 4000, ESI Agilent 1100 column: Gemini Nx 100 mm×4.6 mm 5.μ; column temperature: 30° C.; eluent A: 0.1% formic acid in water, eluent B: acetonitrile; gradient: 0-2.5 min 95% A, 5% B; 2.5-2.6 min 5% A, 95% B; 2.6-4.2 min 95% A, 5% B; flow rate: 0.8 ml/min; ESI. Q1:464.098, Q3:144.255
Prepared 0.1 mol of citric acid and 0.2 mol of di sodium hydrogen phosphate in water. Buffer pH 2.2, 4 and 7.8 are prepared using citric acid and disodium hydrogen phosphate by adjusting the pH with 0.1N HCl or 1N NaOHpH 7.4: 8.89 g disodium hydrogen phosphate (Solution A) add to 1 liter of water, 1.5601 g sodium di-hydrogen phosphate (solution B) are made up to 1 liter with water; Solution A (19 ml) and Solution B (81 ml) are mixed. SIF/SGF: 2.38 g of SIF original powder (biorelavant media) is dissolved in 1 L of milliQ water. The pH of the solution is adjusted for SIF (7.4) and SGF (2.2) with 0.1N HCl. The ratios of the peak areas (F) at the respective time points in relation to the peak areas at the starting time are calculated
The peak area (F) is directly correlated to the amount of test compound which is quantified by the LC MS method. […]

[7] = tested on: CYP1A2, CYP2C9, CYP2D6, CYP2C19, CYP2J2 and CYP3A4; assay: CYP inhibition assay, all isoforms (overall interpretation); assay type: in vitro ADME, human; conditions: human, pooled human liver microsomes, pH 7.4; all assayed isoforms; minimal inhibition; read-out: inhibition of the CYP isoforms that were assayed
Procedure: as §2, §3
(§4) This is an essential parameter to gauge drug-drug interactions.

[8] = tested on: CYP isoforms; assay: as above; assay type: in vitro ADME, human; conditions: with other drug when administered
Procedure: as §2, §3, §4

[9] = In vitro liver microsomal stability assay (mouse); assay type: in vitro ADME; conditions: mouse liver microsomes
Procedure: as §1

[10] = metabolised to rivaroxaban from zero min

Structure (SMILES): O=CN(C[C@H]1CN(c2ccc(N3CCOCC3=O)cc2)C(=O)O1)C(=O)c1ccc(Cl)s1 [Compound formula B, 5-chloro-N-formyl-N-({(5S)-2-oxo-3-[4-(3-oxomorpholin-4-yl)phenyl]-1,3-oxazolidin-5-yl}methyl)thiophene-2-carboxamide]
- Conversion: amount of test product detected [1]: min. Neglible
- Observation (metabolism; for Test Product: of the formed rivaroxaban) [2]: shown metabolism
- amount of test product detected [2, 10]: min. Neglible
- Observation: amount of test product [3]: Not quantificable amount
- Observation: formed Rivaroxaban bound to plasma protein [3]: found to be High bound to
- IC50 [4]: 22.4 µM
- IC50 [5]: 6.7 µM
- stability at simulating intestinal conditions [6]: stable at simulating intestinal conditions
- IC50 [7]: > 1 µM
- Interpretation of CYP inhibition studies [8]: Low drug-drug interaction (compound formula-B
- Observation (metabolism; for Test Product: of the formed rivaroxaban) [9]: shown metabolism
- amount of test product detected [9, 10]: min. Neglible
